Source: patent US9505721B2, “Aromatic imide compound and method for producing same” (AZ ELECTRONIC MATERIALS (LUXEMBOURG) S.A.R.L., priority 2012, dated 2016)

Columns and labels:
[1] = Ultraviolet and visible absorption spectrum (absorbance at i-, h- and g-line); assay type: physicochemical; conditions: measurement solvent dichloromethane
Method: [3] Ultraviolet and visible absorption spectrum Types of machines: Varian Cary4000 manufactured by Agilent Technologies, Inc.
(§1) Measurement solvent: Dichloromethane
Absorption spectrums of compounds obtained in Examples 1 to 5 were measured. Furthermore, N-trifluoromethanesulfonyloxy-1,8-naphthalimide was used as a comparative example.

[2] = Evaluation test of acid generating ability (UV irradiation, BCG pH probe); assay type: physicochemical; conditions: solution in dichloromethane with BCG, before irradiation
Method: It was measured and evaluated by devices and a method (Evaluation test of acid generating ability) described below whether compounds obtained in Examples above acted as an acid generator under photoirradiation. The actual evaluation was conducted by use of Compound 1H. Devices used in evaluation are as follows.
as §1
(1) […] Compound 1H solution in dichloromethane was prepared and a few drops of 50% bromocresolgreen (BCG) solution in ethanol were added in this solution as pH probe.
(2) The absorption spectrum of the solution was measured and it was checked that there are maximum absorption spectrums of Compound 1H in 300-400 nm and BOG in 630 nm. The color of this solution was dark blue.
(3) The absorption spectrum of the solution was measured every 2 minutes while irradiating the solution described (2) above by UV lamp. At this time, the progress of attenuation concerning absorption maximum of BCG spectrum and the discoloration situation of dark blue color in the solution due to the pH decline of the system by generation of acids were observed by eyes.

SMILES	absorbance 365 nm (i-line) [1]	absorbance 405 nm (h-line) [1]	absorbance 436 nm (g-line) [1]	maximum absorption spectrum [2]
O=C1c2cccc3cccc(c23)C(=O)N1OS(=O)(=O)C(F)(F)F [Comparative example, N-trifluoromethanesulfonyloxy-1,8-naphthalimide, reference compound]	0.02925	0.005575	0.004642	
O=C1c2cccc3c(C#Cc4ccccc4)ccc(c23)C(=O)N1OS(=O)(=O)C(F)(F)F [Compound 1H, N-trifluoromethanesulfonyloxy-4-phenylethynyl-1,8-naphthalimide]	0.4162	0.5112	0.01499	300-400 nm
